Legend:
[1] = system: Aspergillus sojae NBRC4239 strain; assay: Toxicity of selenium compounds: cell proliferation with alamarBlue Cell Viability Reagent; type: cell-based; settings: conidia of Aspergillus sojae NBRC4239; 0-2 mM final concentration; 30° C. for 30 hours
Description: The cytotoxicity of sodium selenite was tested as follows. To quantify cell proliferation, alamarBlue Cell Viability Reagent (Thermo Fisher Scientific) was used.
The mixture composed of 2× DPY liquid medium (2 (w/v) % polypeptone, 4 (w/v) % dextrin, 1 (w/v) % yeast extract, 1 (w/v) % KH2PO4, 0.1 (w/v) % MgSO4·7H2O; pH not adjusted), 2× alamarBlue and 2×10^4 cells/ml the conidia of Aspergillus sojae NBRC4239 strain was dispensed in the volume of 100 μl into each well of a microplate. Similarly, 100 μl of an aqueous sodium selenite solution was added to each well so that the final concentration was 0 mM, 0.125 mM, 0.25 mM, 0.5 mM, 1 mM and 2 mM. The blank without the addition of the conidia and sodium selenite solution was used as a blank.
After incubating the microplate at 30° C. for 30 hours, absorbance at 570 nm was measured. A plot of the value calculated by subtracting absorbance at 600 nm of the blank from the measurement result according to the instruction manual of alamarBlue reagent is shown in FIG. 4.

[2] = known to have; no test by the applicant; cited from earlier work

Compound | degree of mycelial growth observed visually [1] | growth inhibition (cytotoxicity, absorbance at 570 nm, FIG. 4) [1] | antioxidant activity relative to its thio analog, ergothioneine [2]
O=[Se](O)O [sodium selenite] | No difference | no growth inhibition | –
C[N+](C)(C)[C@@H](Cc1cnc([Se-])[nH]1)C(=O)O [selenoneine] | – | – | 1,000 times
